# Measurements taken from patent US20220095617A1, “PLANT GROWTH REGULATING AGENT” (IDEMITSU KOSAN CO.,LTD., priority 2019, published 2022).
# Legend:
# [1] = test system: lettuce (Green Wave); assay: Example 1: High-temperature stress Petri dish test (lettuce), comparison with other natural products; type: in vivo; details: 0.1 ppm in agar medium
# [2] = test system: lettuce (Green Wave); assay: Example 3: High-temperature stress Petri dish test (lettuce), blending with β-carotene; type: in vivo; details: 0.1 ppm
# [3] = test system: Rice (Koshihikari) seeds; assay: Example 5: High-temperature stress Petri dish test (rice seeds); type: in vivo; details: for Germination rate, Increase rate: non-addition group = 100.0; for Germination rate, Average: seeds 65° C. hot water 10 minutes, 28° C. 5 days
# Protocol: (§1) Rice (Koshihikari) seeds were soaked in hot water at 65° C. for 10 minutes to perform high-temperature treatment. […] A group similarly soaked in distilled water was provided as a non-addition group. After the soaking treatment, the seeds were dried in air, and then 20 seeds were sown on each of shallow Petri dishes in which qualitative filter paper was placed. To the filter paper in each Petri dish, 5 mL of distilled water was uniformly added dropwise. […] For each group, three measurement results were obtained (N=3).
# [4] = test system: Cabbage (Okina) seeds; assay: Example 6: High-temperature stress Petri dish test (cabbage seeds); type: in vivo; details: for Germination rate, Increase rate / Root length, Increase rate: non-addition group = 100.0; for Root length, Average: after high-temperature treatment; for Germination rate, Average: seeds 52° C. hot water 25 minutes, 23° C. 4 days
# Protocol: as §1, with “Cabbage (Okina, Takii & Co., Ltd.)” for “Rice (Koshihikari)”, “52°” for “65°”, “25” for “10”, “3” for “5”, “for the germination rate (N=3), and 15 measurement results were obtained for the root length (N=15).” for “(N=3).”
# [5] = test system: Dent corn (34V52); assay: Example 14: Growth-promoting effect (dent corn); type: in vivo; details: for Increase/decrease of above-ground part / Increase/decrease of underground part: non-addition group = 100%; for Weight of above-ground part FW / Weight of underground part FW: 25° C., 14 days
# Protocol: (§2) Dent corn (34V52) was sown on pots filled with seedling culture soil (manufactured by Katakura & Co-op Agri Corporation; Kumiai seedling culture soil for gardening Genkikun No. 1) (soil volume, 130 ml). After confirmation of the germination, drenching treatment was carried out with 5 ml each of dilutions of hesperidin prepared at final concentrations of 1 to 10 ppm (using water as the solvent). […]
# [6] = test system: Wheat (Satonosora); assay: Example 15: Growth-promoting effect (wheat); type: in vivo; details: for Increase/decrease of above-ground part / Increase/decrease of underground part: non-addition group = 100%; for Weight of above-ground part FW / Weight of underground part FW: 25° C., 14 days
# Protocol: as §2, with “Wheat (Satonosora) was” for “Dent corn (34V52) was”, “volume, 100” for “volume, 130”, “After […]” for “After confirmation”, “of 10” for “of 1”, “to 33” for “to 10”
# [7] = test system: lettuce (Green Wave); assay: Example 16: Growth-promoting effect (lettuce, drenching treatment); type: in vivo; details: for Increase/decrease of above-ground part / Increase/decrease of underground part: non-addition group = 100%; for Weight of above-ground part FW / Weight of underground part FW: 25° C., 14 days
# Protocol: Lettuce (Green Wave) was sown on a cell tray filled with seedling culture soil (manufactured by Nihon Hiryo Co., Ltd.; “Naebijin N100”). After the two leaf stage, the lettuce was transplanted to each pot (soil volume, 100 ml). […]
# [8] = test system: lettuce (Green Wave); assay: Example 17: Growth-promoting effect (lettuce, seed treatment); type: in vivo; details: for Increase/decrease of above-ground part / Increase/decrease of underground part: non-addition group = 100%; for Weight of above-ground part FW / Weight of underground part FW: 25° C., 28 days
# Protocol: For lettuce (Green Wave, Takii & Co., Ltd.), seed dressing was carried out by application, at 5% seed weight, of a dilution of hesperidin prepared at a final concentration of 1 to 100 ppm (using water as the solvent). The dressed lettuce seeds were sown on a cell tray filled with seedling culture soil (manufactured by Nihon Hiryo Co., Ltd.; “Naebijin N100”). […]
# [9] = test system: lettuce (Green Wave); assay: Example 23: Metal stress Petri dish test (lettuce); type: in vivo; details: Metal stress (AlCl3 100 μM), 1 ppm
# [10] = test system: tomato (Momotaro Home); assay: Example 24: Dry stress Petri dish test (tomato); type: in vivo; details: Dry stress (20 g/L polyethylene glycol); for Root length, Average: 28° C., 12 days; for Root length, Increase rate: non-addition group = 100.0
# Description: For each group, three measurement results were obtained (N=3).
# [11] = test system: lettuce (Green Wave); assay: Example 2: High-temperature stress Petri dish test (lettuce), blending with neohesperidin; details: 0.1 ppm
# Protocol: For seeds, 2% water agar medium (using water as the solvent), which was prepared such that hesperidin (Fujifilm Wako Pure Chemical Corporation; special-grade reagent) and neohesperidin (Fujifilm Wako Pure Chemical Corporation; special-grade reagent) were contained at the predetermined final concentrations shown in Table 2, was filled into square Petri dishes (“model number: D-210-16”, manufactured by As One Corporation). Before high-temperature treatment, lettuce (Green Wave, Takii & Co., Ltd.) was sown on 2% water agar medium, and lettuce seedlings on day 2 after the sowing were transplanted to the above-described agar medium to which the hesperidin and/or the like was/were added. At the time of the transplantation, the tip of the root was marked. Each Petri dish after the transplantation was placed in an incubator (“model number: FLI-2010A”, manufactured by EYELA) at an angle of 45° with respect to the bottom surface, and high-temperature treatment was carried out at 42° C. for 1.5 hours. Thereafter, culture was similarly performed at 23° C. for 2 days, and then the increase in the root length was evaluated in terms of elongation from the tip of the root of each seedling at the time of the transplantation. In addition, for evaluation of the effect of the mixture of hesperidin and neohesperidin in normal cultivation, culture was similarly performed at 23° C. without performing the high-temperature treatment, followed by evaluation of the increase in the root length. […] The Colby's equation is as follows.
# E=(x+y)−(x·y)/100 Colby's equation:
# E: Expected root length x: Root length in the case of application of hesperidin alone y: Root length in the case of application of neohesperidin alone For each group, 15 measurement results were obtained (N=15).
# [12] = High-temperature treatment (42° C., 1.5 hours)
# [13] = seed treatment (dressing) 1 ppm
# [14] = seed treatment (dressing) 10 ppm
# [15] = seed treatment (dressing) 100 ppm
smiles,measurement,setting,value
COc1ccc([C@@H]2CC(=O)c3c(O)cc(O[C@@H]4O[C@H](CO[C@@H]5O[C@@H](C)[C@H](O)[C@@H](O)[C@H]5O)[C@@H](O)[C@H](O)[C@H]4O)cc3O2)cc1O [Hesperidin],Root length,"[1]; High-temperature treatment (42° C., 1.5 hours), then 23° C. 2 days",24.0 mm
same,Root length,[1]; Normal cultivation,25.1 mm
same,Root length,[2]; [12],15.0 mm
same,Root length,[2]; Normal cultivation,22.2 mm
same,"Germination rate, Increase rate",[3]; 1 ppm,131.5%
same,"Germination rate, Increase rate",[3]; 10 ppm,146.6%
same,"Germination rate, Increase rate",[3]; 100 ppm,134.0%
same,"Germination rate, Average",[3]; then soaked 1 hour at 1 ppm,77.3%
same,"Germination rate, Average",[3]; then soaked 1 hour at 10 ppm,86.2%
same,"Germination rate, Average",[3]; then soaked 1 hour at 100 ppm,78.8%
same,"Germination rate, Increase rate",[4]; 100 ppm,127.1%
same,"Root length, Increase rate",[4]; 100 ppm,189.7%
same,"Germination rate, Increase rate",[4]; 1000 ppm,150.3%
same,"Root length, Increase rate",[4]; 1000 ppm,224.6%
same,"Root length, Average",[4]; 100 ppm,43.6 mm
same,"Root length, Average",[4]; 1000 ppm,51.6 mm
same,"Germination rate, Average",[4]; then soaked at 100 ppm,66.2%
same,"Germination rate, Average",[4]; then soaked at 1000 ppm,78.3%
same,Increase/decrease of above-ground part,[5]; 1 ppm,114%
same,Increase/decrease of underground part,[5]; 1 ppm,126%
same,Increase/decrease of above-ground part,[5]; 3 ppm,111%
same,Increase/decrease of underground part,[5]; 3 ppm,123%
same,Increase/decrease of above-ground part,[5]; 10 ppm,104%
same,Increase/decrease of underground part,[5]; 10 ppm,103%
same,Weight of above-ground part FW,[5]; drenching 1 ppm,6.5 mg/individual
same,Weight of underground part FW,[5]; drenching 1 ppm,5.1 mg/individual
same,Weight of above-ground part FW,[5]; drenching 3 ppm,6.3 mg/individual
same,Weight of underground part FW,[5]; drenching 3 ppm,5.0 mg/individual
same,Weight of above-ground part FW,[5]; drenching 10 ppm,5.9 mg/individual
same,Weight of underground part FW,[5]; drenching 10 ppm,4.2 mg/individual
same,Increase/decrease of above-ground part,[6]; 10 ppm,123%
same,Increase/decrease of underground part,[6]; 10 ppm,107%
same,Increase/decrease of above-ground part,[6]; 33 ppm,116%
same,Increase/decrease of underground part,[6]; 33 ppm,104%
same,Weight of above-ground part FW,[6]; drenching 10 ppm,364.9 mg/individual
same,Weight of underground part FW,[6]; drenching 10 ppm,391.6 mg/individual
same,Weight of above-ground part FW,[6]; drenching 33 ppm,345.4 mg/individual
same,Weight of underground part FW,[6]; drenching 33 ppm,382.6 mg/individual
same,Increase/decrease of above-ground part,[7]; 1 ppm,103%
same,Increase/decrease of underground part,[7]; 1 ppm,115%
same,Increase/decrease of above-ground part,[7]; 3 ppm,126%
same,Increase/decrease of underground part,[7]; 3 ppm,119%
same,Increase/decrease of above-ground part,[7]; 100 ppm,118%
same,Increase/decrease of underground part,[7]; 100 ppm,123%
same,Weight of above-ground part FW,[7]; drenching treatment 1 ppm,13.26 mg/individual
same,Weight of underground part FW,[7]; drenching treatment 1 ppm,7.99 mg/individual
same,Weight of above-ground part FW,[7]; drenching treatment 3 ppm,16.17 mg/individual
same,Weight of underground part FW,[7]; drenching treatment 3 ppm,8.29 mg/individual
same,Weight of above-ground part FW,[7]; drenching treatment 100 ppm,15.12 mg/individual
same,Weight of underground part FW,[7]; drenching treatment 100 ppm,8.57 mg/individual
same,Increase/decrease of above-ground part,[8]; 1 ppm,109%
same,Increase/decrease of underground part,[8]; 1 ppm,133%
same,Increase/decrease of above-ground part,[8]; 10 ppm,113%
same,Increase/decrease of underground part,[8]; 10 ppm,142%
same,Increase/decrease of above-ground part,[8]; 100 ppm,149%
same,Increase/decrease of underground part,[8]; 100 ppm,126%
same,Weight of above-ground part FW,[8]; [13],27.4 mg/individual
same,Weight of underground part FW,[8]; [13],7.6 mg/individual
same,Weight of above-ground part FW,[8]; [14],28.3 mg/individual
same,Weight of underground part FW,[8]; [14],8.1 mg/individual
same,Weight of above-ground part FW,[8]; [15],37.4 mg/individual
same,Weight of underground part FW,[8]; [15],7.2 mg/individual
same,"Root length, Average",[9],22.87 mm
same,"Root length, Increase rate",[9]; non-addition group = 100.0,137.6%
same,"Root length, Average",[10]; 0.1 ppm,49.89 mm
same,"Root length, Increase rate",[10]; 0.1 ppm,214.2%
same,"Root length, Average",[10]; 1 ppm,55.81 mm
same,"Root length, Increase rate",[10]; 1 ppm,239.6%
same,Root length,[11]; [12],10.9 mm
same,Root length,[11]; Normal cultivation,19.2 mm
